Results on ten compounds are retold here after patent publication US20260242324A1, “FATTY ACID MIMETICS AS MODULATORS OF GPR40 AND/OR GPR120” (Trustees of Dartmouth College, priority 2023, published 2026).

Where two headings read alike, the source gives them in different places.

In test [1] the target is T1, GPR120 (Homo sapiens, UniProt Q5NUL3).
T1 sequence (Q5NUL3 1-361): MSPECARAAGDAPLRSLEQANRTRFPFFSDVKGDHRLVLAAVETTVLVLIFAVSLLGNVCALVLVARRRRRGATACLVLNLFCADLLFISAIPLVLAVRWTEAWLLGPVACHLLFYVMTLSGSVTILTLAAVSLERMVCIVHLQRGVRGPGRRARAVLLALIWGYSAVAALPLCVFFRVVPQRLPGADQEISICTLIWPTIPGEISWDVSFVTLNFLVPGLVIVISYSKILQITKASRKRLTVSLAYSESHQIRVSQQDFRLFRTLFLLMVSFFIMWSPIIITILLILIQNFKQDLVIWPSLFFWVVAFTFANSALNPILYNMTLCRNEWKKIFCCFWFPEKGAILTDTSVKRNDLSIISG
Briefly: β-arrestin assay (PathHunter) for GPR120 agonism. Type of test: cell-based. Details: beta-galactosidase enzyme fragment for EFC (ProLink-type tag); expressed in transfected cells. Particulars: for EC50: PathHunter β-arrestin, dose-response; for agonist efficacy at GPR120: relative to oleic acid and GW9508; for activity at GPR120 in heat map of % maximal efficacy: single dose 15 μM, FIG. 9A, compared to oleic acid at 15 μM. The procedure: (§1) In this example, compounds from Example 1 were assessed as functional ligands (agonists) to two oleic acid receptors (GPR40 and GPR120). […]

Test [2] concerns the target T2, GPR40 (Homo sapiens, UniProt O14842).
T2 construct: beta-galactosidase enzyme fragment for EFC (ProLink-type tag); expressed in transfected cells
Briefly: β-arrestin assay (PathHunter) for GPR40 agonism. The class given is cell-based. Particulars: for GPR40 agonism / selectivity for GPR40 over GPR120 / EC50: dose-response; for GPR40 agonism / selectivity for GPR40 over GPR120: FIG. 9B; for activity at GPR40 in heat map of % maximal efficacy: single dose 15 μM, FIG. 9A, compared to oleic acid at 15 μM; for EC50: PathHunter β-arrestin; for potency at GPR40 relative to oleic acid: multiple of oleic acid potency. The procedure:
as §1

In test [3] the target is T3, CHO-mGPR40 cells (Mus musculus, UniProt Q76JU9).
T3 construct: host or cells: CHO cells transfected with mGPR40
The settings on record: reported; read-out: EC50, stimulatory activity on CHO-mGPR40 cells; cited from earlier work.

Test [4] concerns MIN6 cells. Particulars: reported, concentrations as low as; cited from earlier work.
In test [5] the target is T1, GPR120. The settings on record: read-out: EC50 as agonist of GPR120; reported; cited from earlier work.

T2 sequence (O14842 whole entry, the tested form may be a part): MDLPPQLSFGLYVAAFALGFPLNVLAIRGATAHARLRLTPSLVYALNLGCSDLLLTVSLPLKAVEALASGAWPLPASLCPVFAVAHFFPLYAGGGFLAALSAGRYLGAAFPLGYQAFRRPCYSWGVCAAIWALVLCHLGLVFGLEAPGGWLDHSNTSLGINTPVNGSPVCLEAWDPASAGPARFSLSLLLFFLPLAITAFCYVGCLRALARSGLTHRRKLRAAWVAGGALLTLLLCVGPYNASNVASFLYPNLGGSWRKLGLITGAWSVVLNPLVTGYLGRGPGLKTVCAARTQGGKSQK
T3 sequence (Q76JU9 whole entry): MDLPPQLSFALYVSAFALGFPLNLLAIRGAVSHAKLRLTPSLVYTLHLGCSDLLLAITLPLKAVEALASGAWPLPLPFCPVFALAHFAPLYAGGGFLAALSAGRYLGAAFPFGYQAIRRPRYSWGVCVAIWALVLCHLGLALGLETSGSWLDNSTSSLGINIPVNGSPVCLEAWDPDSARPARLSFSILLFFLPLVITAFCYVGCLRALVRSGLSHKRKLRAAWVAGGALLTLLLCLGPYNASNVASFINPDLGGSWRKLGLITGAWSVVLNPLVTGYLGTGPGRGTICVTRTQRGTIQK

Consider `CCC[C@@H](C)/C=C(/C)C/C(C)=C/[C@H](C)CCCCCCCC(=O)O` [Compound 4-C], for which the “activity against GPR120” value in test [1] is “inactive against GPR120”.
With `CCCCCCCCC[C@@H](C)/C=C(/C)C/C(C)=C/[C@H](C)CC(=O)O` [Compound 1-C], in test [2], the “GPR40 agonism” value was “exceptionally selective and potent agonists of GPR40”; the “selectivity for GPR40 over GPR120” value was “substantial selectivity over GPR120”; the “activity at GPR40 in heat map of % maximal efficacy” value was “enriched for activity at GPR40”.
The EC50 is the concentration at which the effect is half-maximal. `CCCCCCCC/C=C\CCCCCCCC(=O)O` [oleic acid, reference compound]: the concentration for a half-maximal effect (EC50) in test [2] was 37 µM; in test [3], 2 µM; in test [5] it was 12 µM; in test [1], 15 µM. Besides, the “right shift of reporter assay results” value in test [2] (versus reported values, receptor not specified) was ~ 20 fold. Also, in test [4], the “concentration inducing insulin secretion in MIN6 cells” value was at least 1 µM. For the same compound, the “activity against GPR120” value in test [1] is given as “agonist activity against GPR120”.
For `CCCCCCC[C@H](C)/C=C(/C)C/C(C)=C/[C@H](C)CCCC(=O)O` [Compound 2-E], in test [2], the “GPR40 agonism” value was “effective agonists of GPR40” and the “potency at GPR40 relative to oleic acid” value was “approximately 6 fold”. Further, in test [1] (GPR120 over GPR40), the “selectivity for GPR120” value was determined as 5 fold. Besides, in test [1], the concentration giving a half-maximal response (EC50) was in the range of 1 to 7 µM; the “agonist efficacy at GPR120” value was “agonist efficacy at a fraction of what is observed with oleic acid and GW9508”; the “activity at GPR120 in heat map of % maximal efficacy” value was “enriched for activity at GPR120”. In addition, in test [1] (versus oleic acid or GW9508), the enhanced potency is on record as 7-15 fold.
Turning to `CCCCCCC[C@@H](C)/C=C(/C)C/C(C)=C/[C@H](C)CCCC(=O)O` [Compound 2-C], in test [2], the “GPR40 agonism” value is “effective agonists of GPR40” and the “potency at GPR40 relative to oleic acid” value is recorded as “approximately 6 fold”. Besides, in test [1], the “activity against GPR120” value is “agonist activity against GPR120”; the EC50 was in the range of 1 to 7 µM; the “agonist efficacy at GPR120” value was “agonist efficacy at a fraction of what is observed with oleic acid and GW9508”; the “activity at GPR120 in heat map of % maximal efficacy” value is on record as “enriched for activity at GPR120”.
Consider `CCCCCCCCC[C@H](C)/C=C(/C)C/C(C)=C/[C@@H](C)CC(=O)O` [Compound 1-F], for which, in test [2], the “GPR40 agonism” value is “exceptionally selective and potent agonists of GPR40”; the “selectivity for GPR40 over GPR120” value is “substantial selectivity over GPR120”.
Take `CCCCCCCCC[C@H](C)/C=C(/C)C/C(C)=C/[C@H](C)CC(=O)O` [Compound 1-E]: in test [2], the “GPR40 agonism” value is “exceptionally selective and potent agonists of GPR40”; the “selectivity for GPR40 over GPR120” value is “substantial selectivity over GPR120”; the “potency at GPR40 relative to oleic acid” value was “twelve times greater than oleic acid”; the “activity at GPR40 in heat map of % maximal efficacy” value is recorded as “enriched for activity at GPR40”.
As to `O=C(O)CCc1ccc(NCc2cccc(Oc3ccccc3)c2)cc1` [GW9508, reference compound], in test [2], the EC50 is 1 µM.
Turning to `CCCCCCC[C@@H](C)/C=C(/C)C/C(C)=C/[C@@H](C)CCCC(=O)O` [Compound 2-D], in test [2], the “GPR40 agonism” value was “effective agonists of GPR40” and the “potency at GPR40 relative to oleic acid” value is given as “approximately 6 fold”. Further, in test [1], the EC50 is 1 to 7 µM; the “agonist efficacy at GPR120” value is “agonist efficacy at a fraction of what is observed with oleic acid and GW9508”; the “activity at GPR120 in heat map of % maximal efficacy” value is on record as “enriched for activity at GPR120”.
Turning to `CCCCCCCCCC/C=C(/C)C/C(C)=C/[C@H](C)CC(=O)O` [Compound 1-A], the “activity at GPR40 in heat map of % maximal efficacy” value in test [2] is “enriched for activity at GPR40”.
